Marks after values point to notes of the source that are not given here.
Experiments:
[1] = tested on: Pseudomonas aeruginosa (ATCC 9027); assay: Anti-bacterial MIC, microbroth dilution; format: cell-based; conditions: for MIC v. P. aeruginosa: Tables 4 and 5, rounded values, wt %; for MIC (%) P. aeruginosa: pH 4.5, CAMHB, 37° C., 24 hours
Protocol: (§1) Method: Microbroth Dilution Method (96-well format).
(§2) Solvent: Sterile MilliQ water and 0.1 M Citrate Buffer pH 4.5
(§3) Media used: • Bacterial: Cation-Adjusted Mueller-Hinton Broth (CAMHB) • Fungi: RPMI-1640
(§4) Bacteria • Incubation Temperature: 37° C. • Incubation Time: 24 hours • Inoculum Size: 5×10(5) cfu/mL • Strains: • Staphylococcus aureus (ATCC 6538) • Escherichia coli (ATCC 8739) • Pseudomonas aeruginosa (ATCC 9027) • Burkholderia cepacia (ATCC 25416)
(§5) Fungi: • Incubation Temperature: • 25° C. (Candida albicans) • 35° C. […] . All solubilized and pH 4.5-adjusted test compounds were filter-sterilized before subjecting to MIC study. Positive control was also dissolved in the similar way. […] All the strains were inoculated on their respective agar medium and incubated under conditions/durations detailed above. • Preparation of inoculum: • The bacterial colony suspension in 0.85% saline was adjusted to 1 McFarland's standard using Densimat which was further diluted to 1:100 in CAMHB. The fungal suspension for inoculation was prepared in 0.85% saline from 6 days old culture (for mold, A. brasiliensis) and from 2 days old culture (for yeast, C. albicans) from Sabouraud Dextrose agar medium. Culture was scrapped/scooped from the plate, suspended in saline and the spores/cells counted using haemocytometer to provide a final inoculum of 5×10^4 cfu/mL. • 96-well Plate Preparation: • Minimum inhibitory concentration (MIC) is performed to determine potency of test compounds along with standard antibiotics against bacterial strains. Micro titer plates were prepared as per the CLSI recommendations. One hundred and seventy five microliters of Cation-adjusted Muller Hinton Broth (CAMHB) was added to the first column of a 96 well flat bottom plate, which is the media control. Second column is for the stocks of the test compounds and reference standards from which dilutions are made. Then 175 μL of CAMHB was added to the 5th, 8th and 11th columns, 75 μL of CAMHB to the 4th, 7th and 10th columns and 50 μL of CAMHB to the 3rd, 6th and 9th columns and the last column was the organism control. Antimicrobial Efficacy Testing

[2] = Determination of Aqueous Solubility (pH-4.5) by Miniaturized Shake Flask Method; format: physicochemical; conditions: ultrapure water pH 4.5, 22° C., highest test concentration 1% w/v
Protocol: Determination of Aqueous Solubility (pH-4.5) by Miniaturized Shake Flask Method
Test Media: Ultrapure water (pH-4.5) (18MΩDl water)
Test Concentration: 10 mg/ml
Incubation Details: 22° C. +/−3° C.
Method of Analysis: Photometric analysis using Microplate reader
Data Output: Aqueous Solubility
Required volume of ultrapure water (˜75 mL) was taken and pH was adjusted to 4.5 using citrate buffer (pH-4.5). This water was used as a test media for determining the solubility of test/reference items.
Solubility Testing by Shake Flask Method
The solubility of test items were determined at a highest test concentration of 1% w/v (10 mg/mL).
40 mg of test items were weighed into tubes.
4 mL of Ultrapure water was added to all tubes to get a concentration of 10 mg/mL (1% w/v).
The initial pH of the solubility samples were recorded. […] Then, the solution were observed visually for any precipitation.
The visually soluble samples were centrifuged at 10000 rpm for 10 minutes at room temperature (22° C.±3° C.).
An aliquot of the supernatant were diluted with equal volume of methanol. The samples were further diluted in methanol: water (50:50) to obtain dilution of 1:2, 1:4, 1:16, 1:32 etc.
The samples were then transferred to UV plate and scanned at Amax of that particular test/reference item.

[3] = tested on: Candida albicans (ATCC 10231); assay: Anti-fungal MIC, microbroth dilution; format: cell-based; conditions: pH 4.5, RPMI-1640, 25° C., 48 hours
Protocol: as §1, §2, §3, §5

[4] = tested on: Aspergillus brasiliensis (ATCC 16404); assay: Anti-fungal MIC, microbroth dilution; format: cell-based; conditions: pH 4.5, RPMI-1640, 35° C., 48 hours
Protocol: as §1, §2, §3, §5

[5] = tested on: Burkholderia cepacia (ATCC 25416); assay: Anti-bacterial MIC, microbroth dilution; format: cell-based; conditions: pH 4.5, CAMHB, 37° C., 24 hours
Protocol: as §1, §2, §3, §4, §5

[6] = tested on: Staphylococcus aureus (ATCC 6538); assay: Anti-bacterial MIC, microbroth dilution; format: cell-based; conditions: pH 4.5, CAMHB, 37° C., 24 hours
Protocol: as §1, §2, §3, §4, §5

[7] = tested on: Escherichia coli (ATCC 8739); assay: Anti-bacterial MIC, microbroth dilution; format: cell-based; conditions: pH 4.5, CAMHB, 37° C., 24 hours
Protocol: as §1, §2, §3, §4, §5

[8] = tested on: various bacteria and fungi; assay: Antimicrobial Efficacy Testing (USP 51), overall outcome; format: cell-based; conditions: USP 51, 28 days
Text: The Antimicrobial Efficacy Testing discussed herein was completed pursuant to the standard antimicrobial effectiveness test from Chapter 51 of the United States Pharmacopeia (USP 51), in which an antimicrobial composition can be tested against at least five microorganisms, including bacteria and fungi. In the Antimicrobial Efficacy Testing conducted herein, the following bacteria were utilized: Staphylococcus aureus, Escherichia coli, Pseudomonas aeruginosa, and Burkholderia cepacia; and the following fungi were utilized: Candida albicans, and Aspergillus brasiliensis. While one of ordinary skill in the art could replicate such Antimicrobial Efficacy Testing by completing USP 51 protocol, a brief summary was that each antimicrobial composition sample was tested against each microorganism being held at room temperature over the course of 28 days, with each sample being evaluated at specific intervals at the beginning of the Testing (initial), day 7, day 14, and day 28. The test sample colonies were counted at each interval to determine the number of surviving microorganisms. The log reduction of each microorganism at each interval was reported. The effectiveness of the antimicrobial agent sample was based on the USP 51 passing criteria.

Molecule | MIC v. P. aeruginosa [1] | Solubility (wt %) [2] [wt %] | MIC (%) C. albicans [3] | MIC (%) A. brasiliensis [4] | MIC (%) B. cepacia [5] | MIC (%) P. aeruginosa [1] | MIC (%) S. Aureus [6] | MIC (%) E. coli [7] | Antimicrobial Efficacy Testing outcome (inhibiting growth of various bacteria and fungi) [8]
O=[N+]([O-])C(Br)(CO)CO [2-Bromo-2-Nitropropane-1,3-Diol, reference compound] | 0.00% |  |  |  |  |  |  |  | 
O=C(O)c1ccccc1 [Benzoic Acid, reference compound] | 0.07% |  |  |  |  |  |  |  | 
OCc1ccccc1 [Benzyl Alcohol, reference compound] | 0.35% |  |  |  |  |  |  |  | 
CCCCCCCC(=O)NO [Caprylhydroxamic Acid, reference compound] | 0.07% | 0.1358 | 0.008% | 0.004% | 0.017% | 0.0679% | 0.034% | 0.017% | 
CCCCCC(=O)NO [Compound No. 1, Hexylhydroxamic Acid] | 0.06% | >1.00 | 0.031% | 0.008% | 0.0625% | 0.0625% | 0.25% | 0.125% | 
CCCCCCCCCC(=O)NO [Compound No. 3, Decylhydroxamic Acid] | >0.00125%* | 0.0025 | >0.00125* % | >0.00125* % | >0.00125* % | >0.00125* % | >0.00125* % | >0.00125* % | 
O=C(NO)c1ccccc1 [Compound No. 5, Benzhydroxamic Acid] | 0.06% | >1.00 | 0.031% | 0.016% | 0.125% | 0.0625% | 0.125% | 0.25% | 
O=C(NO)c1ccc(O)cc1 [Compound No. 6, p-hydroxy Benzhydroxamic Acid] | 0.06% | >1.00 | >1.00* % | 0.25% | 0.031% | 0.0625% | 0.125% | 0.0625% | 
O=C(CC(O)C(=O)NO)NO (stereo not shown) [Compound No. 7, N, N′, 2-trihydroxy butane diamide] | 0.03% | >1.00 | 0.008% | 0.008% | 0.016% | 0.031% | 0.008% | 0.016% | 
O=C(CCC(=O)NO)NO [Compound No. 8, N, N′-dihydroxysuccinamide] | 0.06% | >1.00 | 0.25% | 0.031% | 0.031% | 0.0625% | 0.016% | 0.031% | 
O=C(CCCCCCC(=O)NO)NO [Compound No. 9, N, N′-dihydroxyoctanediamide] | >0.12%* | 0.248 | >0.124* % | >0.124* % | >0.124* % | >0.124* % | >0.124* % | >0.124* % | did not pass
CC1(C)C(=O)N(CO)C(=O)N1CO [DMDM Hydantoin, reference compound] | 0.02% |  |  |  |  |  |  |  | 
CC(=O)C1C(=O)C=C(C)OC1=O (stereo not shown) [Dehydroacetic Acid, reference compound] | 2.00% |  |  |  |  |  |  |  | 
O=C(NCO)N(CO)C1(CO)C(=O)NC(=O)N1CO (stereo not shown) [Diazolidinyl Urea, reference compound] | 0.10% |  |  |  |  |  |  |  | 
Cn1sccc1=O [Methylisothiazolinone, reference compound] | 0.00% |  |  |  |  |  |  |  | 
COC(=O)c1ccc(O)cc1 [Methylparaben, reference compound] | 0.20% |  |  |  |  |  |  |  | 
OCCc1ccccc1 [Phenethyl Alcohol, reference compound] | 0.41% |  |  |  |  |  |  |  | 
CCCCCCCCCCCC(=O)NO [compound 2, Laurylhydroxamic Acid] |  | 0.0022 | >0.0011* % | >0.0011* % | >0.0011* % | >0.0011* % | >0.0011* % | >0.0011* % | 
Propylhydroxamic Acid [reference compound] | 0.50% |  |  |  |  |  |  |  | 

Source: patent US11653649B2, “Antimicrobial composition including a dihydroxamic acid and methods of inhibiting microbial growth utilizing the same” (Kimberly-Clark Worldwide, Inc., priority 2017, dated 2023)
